Test results published in patent publication US20220168442A1, “ARTIFICIAL T-CELL STIMULATING MATRIX FOR IMMUNOTHERAPY” (The Johns Hopkins University, priority 2019, published 2022).
Ends that are not written are not given here.

Assays:
Type in all cases: cell-based, mouse
[1] = system: B6 CD8+ T cells; test: CD8+ T cell fold expansion after seven days of stimulation on aTM; details: added to culture on 0.5-kPa aTM; 100 μM; same amount of stimulatory ligand
Protocol: Murine cells were obtained from adult mouse lymph nodes and spleens. Obtained cells were treated with ACK lysing buffer to lyse red blood cells and filtered through cell strainers to isolate splenocytes. PBMCs from healthy donors were isolated by Ficoll-Paque PLUS gradient centrifugation (GE Healthcare). CD8+T lymphocytes were then isolated from splenocytes or PBMCs by negative selection using CD8+ isolation kits and magnetic columns from Miltenyi Biotech (Auburn, Calif., USA) according to the manufacturer's protocol. […]
CD8+ T cells were isolated as previous described and resuspended in 1 mL T cell culture media. […] The CFSE fluorescence intensity was measured using BD FACSCALIBUR™ flow cytometer. Cell proliferation was analyzed using FLOWJO™ with diluted CFSE fluorescence peaks signifying population after each round of cell division. A subset of the cells were allowed to expand for 7 days and viable cells were counted with a hemocytometer to determine fold expansion. […]

[2] = system: PMEL CD8+ T cells; test: aTM with laminin or cyclic RGD attached, T cell expansion; details: laminin 20 μg/mL or cyclic RGD 100 μM incorporated into aTM
Protocol: HA solution was prepared as previously described. Anti-CD3 and anti-CD28 antibodies were purchased respectively from BioXCell (145-2C11; West Lebanon, N.H., USA) and BioLegend (37.51; San Diego, Calif., USA). […] PEGDA crosslinker was added to reduced MHC-Ig dimers, anti-CD3 and anti-CD28 antibody solutions to a final concentration of 0.5% PEGDA for preparation for crosslinking. Prior to hydrogel formation, MHC-Ig dimers or anti-CD3 antibodies and anti-CD28 co-stimulatory signals with 0.5% PEGDA were added to the HA solution to directly attach signals on HA through thiol-diene chemistry. The HA-antibody solution was then mixed with PEGDA crosslinker at a 4:1 ratio to be plated. The aTM was allowed to form within flat-bottomed tissue culture plates to form a complete layer for at least 1 hour prior to washing 3 times with 1×PBS to remove any unbound stimulatory signal, and cells were subsequently plated. To investigate the effects of extracellular matrix (ECM) protein attachment, cyclic RGD (CCRRGDWLC (SEQ ID NO: 1)), which was synthesized by solid phase methods as described previously (Li et al., Stem Cells Transl. Med., 3: 662-670 (2014)), or laminin (ThermoFisher) were added to make a HA solution with protein concentration of 100 μM and 20 μg/mL, respectively, prior to the hydrogel formation. […]

[3] = system: murine CD8+ T cells; test: aLN ex vivo CD8+ T cell expansion and phenotype, day 7
Protocol: Artificial lymph nodes (aLNs) were synthesized by mixing 0.8 w/v % thiolated HA with either 0.1 or 2 w/v % of the crosslinker PEG-diacrylate (PEGDA), which was pre-mixed with 5 μg/mL thiolated anti-CD3 and anti-CD28 antibodies, and either no protein, 100 μM cyclic RGD, or 20 μg/mL laminin was added. Isolated murine CD8+ T cells were added to the surface of the aLNs. On day 7 viable cells were harvested, counted, and stained for phenotypic markers for flow cytometry (CD8, CD44, CD62L). For in vivo experiments, B6 mice received subcutaneous injection of aLN treatment (no protein, 570 Pa, with antigen-specific stimulation from KbSIY for 2C CD8+ T cells) or PBS. 2C CD8+ T cells were isolated, labeled with CellTrace CFSE dye and injected retro-orbitally on the same day. On days 3 and 6, blood samples were taken for CFSE division analysis via flow cytometry.

In the case of Cc1ccc2c(c1)C(=O)C1(O)CCN(c3ccccc3)C1=N2 (centres unmarked) [blebbistatin], the “CD8+ T cell expansion in the presence of the inhibitor” value [1] is reported as “abolished”.
For “CCRRGDWLC (SEQ ID NO: 1) (also: cyclic (mode not given here)) [cyclic RGD cell-adhesive peptide attached to aTM / aLN]”, the “effect of cell-adhesive ligands on stimulation of antigen-specific PMEL CD8+ T cells” value [2] was “further increased T cell proliferation”, the “percent memory T cells” value ([3]; 570-Pa aLN, day 7) was “increased” and the “total expansion compared to no protein and laminin” value ([3]; attached to softer aLNs) was “nearly doubled total expansion”.
In the case of laminin, the “percent activated T cells” value ([3]; 570-Pa aLN, day 7) is reported as “increased”.
